Measurements from patent publication US20110183336A1, “Method to Predict Responsiveness of Breast Cancer to Polyamine-Type Chemotherapy” (THE REGENTS OF THE UNIVERSITY OF CALIFORNIA, priority 2007, published 2011).
Read-outs that look alike come from different tables or passages of the source.

Assays:
HCC70 cells [1] = test: Caspase Glo 3/7 assay (apoptosis); format: cell-based, human; conditions: select sensitive cell lines except T47D (FIG. 4: HCC70); 0.3, 10 and 300 uM
Method: (§1) FIGS. 4A and 4B. Effect of CGC-11047 on HCC70 cells with respect to cell cycle and apoptosis. In FIG. 4A, cells were treated for 72 hours with 0, 0.3, 10, or 100 μM CGC-11047. Shown are percentage of the cell population is G0-G1, S, or G2-M phase of cell growth. In FIG. 4B, cells were treated for 42, 48, or 72 hours with 0.3, 10, or 300 μM CGC-11047. Shown is the caspase activity (apoptosis) of treated cells within each condition compared to untreated controls.
(§2) Caspase Glo assay: Apoptosis was measured using the Promega Caspase Glo 3/7 assay (Promega, Madison, Wis.). Lyophilized pellet was eluted in solvent to make working Caspase Glo reagent. After incubation of cells with CGC-11047 at specified concentrations for 24, 48, and 72 hours, 50 ul of Caspase Glo reagent was added to the wells. After an incubation time of 1 hour, luminescence was measured using a luminometer.
(§3) Select sensitive cell lines were treated with CGC-11047 at 0.3, 10 and 300 uM. BrdU incorporation was measured and cell cycle distribution was analyzed at 48 and 72 hrs. Apoptosis was measured using the Promega Caspase Glo 3/7 assay.

[2] = test system: panel of 42 breast cancer cell lines and 6 non-cancerous breast cell lines; test: Cell growth inhibition assay, whole panel; format: cell-based; conditions: whole breast cell line panel, 72 h
From the text: To better delineate the response of breast cancer cells to conformationally-restricted polyamines, we studied the anti-proliferation activity of CGC-11047 (SL-11047 or Compound 58 in Table 1) among the panel of 42 breast cancer cell lines and 6 non-cancerous breast cell lines (e.g., human mammary epithelial cells, HMEC) of known subtype (basal or luminal) with a plethora of genomic background mimicking the human breast tumors. Extensive genomic background of these cell lines have been reported by Neve et al. (2006).
Cell culture: Breast cell lines were obtained from the ATCC and from collections developed in the laboratories of Drs. Steve Ethier and Adi Gazdar.
Cell growth inhibition assay and data analysis: Cells were plated at proper density in 96-well plates such that they would remain in log growth at the end of assay time. The cells were allowed to attach overnight before being exposed to CGC-11047 for 72 h. Drugs were dissolved in water as 100 mM stock. […] The cell growth was determined using Cell Titer Glo (CTG) assay (CellTiter-Glo Luminescent Cell Viability Assay, Promega, Madison, Wis.), with slight modification form manufacturer's protocol, at day 0 (time when drug was added) and at day 3 of drug exposure. […] Luminescence from the assay was recorded using BIO-TEK FLx800. […]

HCC70 cells [3] = test: BrdU incorporation and cell cycle distribution; format: cell-based, human; conditions: select sensitive cell lines except T47D (FIG. 4: HCC70); 0.3, 10 and 300 uM; 48 and 72 hrs
Method: as §1
(§4) BrdU cell staining and labeling: After incubation of cells with CGC-11047 at specified concentrations for 24, 48, and 72 hours, cells were pulsed with a final BrdU concentration of 10 uM for 30 minutes. Cells were then fixed with −20° C. 70% ethanol overnight. Fixed cells were incubated with 2N HCl for 5-7 minutes to denature DNA. Cell were then rinsed with 1× PBS to neutralize HCl.
(§5) Cells were incubated with primary donkey anti-BrdU antibody (diluted 1:100 in 0.5% PBS-tween20) for 1 hour then rinsed well with 0.5% PBS-tween20. Cells were incubated with Hoechst 33642 (diluted 1:2000) and secondary anti-donkey antibody (diluted 1:500) for 45 minutes and washed well with PBS-tween. […]
as §3

T47D cells [4] = test: BrdU incorporation and cell cycle distribution; format: cell-based, human; conditions: T47D (FIG. 5); 0.3, 10 and 300 uM; 48 and 72 hrs
Method: as §1, with “5A” for “4A”, “5B.” for “4B.”, “T47D” for “HCC70”, “5A,” for “4A,”, “5B,” for “4B,”
as §4, §5, §3

T47D cells [5] = test: Caspase Glo 3/7 assay (apoptosis); format: cell-based, human; conditions: T47D (FIG. 5); 0.3, 10 and 300 uM
Method: as §1, with “5A” for “4A”, “5B.” for “4B.”, “T47D” for “HCC70”, “5A,” for “4A,”, “5B,” for “4B,”
as §2, §3

CCNCCCNC/C=C\CNCCCNCC [CGC-11047]
apoptosis (caspase 3/7 activity) (HCC70 cells [1]): very little apoptosis detected | GI50 ([2]; Homo sapiens, read-out: median GI50): ~40 µM | GI50 ([2]; units given in the value, read-out: GI50 range of the cell lines tested): 0.4 to 5000 µM | cell cycle distribution / BrdU incorporation (HCC70 cells [3]): growth inhibition is mainly caused by the delay in cell cycle, a G1 arrest | cell cycle distribution / BrdU incorporation (T47D cells [4]): very little changes in the cell cycle | apoptosis (caspase 3/7 activity) (T47D cells [5]): significant accumulation of apoptosis
